Patent US6087355A, “Cephalosporin antibiotics” (Microcide Pharmaceuticals, Inc., priority 1996, dated 2000)
Structures can show the parent of a compound that is named as a salt.

Experiments:
E. coli ATCC 25992 = test: In vitro MIC, agar dilution; assay type: cell-based; details: Escherichia coli, ATCC25992, read-out: minimum inhibitory concentration (MIC)
How it was run: (§1)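 Spots of about 10^4 cfu of log-phase culture were applied, and plates were incubated 16-20 h at 35-36 °C. MIC was the lowest concentration inhibiting growth.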

E. faecalis ATCC 29212 = test: In vitro MIC, agar dilution; assay type: cell-based; details: Enterococcus faecalis, ATCC29212, read-out: minimum inhibitory concentration (MIC)
How it was run: as §1

E. faecalis VanB(Van^R) = test: In vitro MIC, agar dilution; assay type: cell-based; details: Enterococcus faecalis, read-out: minimum inhibitory concentration (MIC)
How it was run: as §1

E. faecium A491(Amp^R) = test: In vitro MIC, agar dilution; assay type: cell-based; details: Enterococcus faecium, read-out: minimum inhibitory concentration (MIC)
How it was run: as §1

E. faecium ATCC 35667 = test: In vitro MIC, agar dilution; assay type: cell-based; details: Enterococcus faecium, ATCC35667, read-out: minimum inhibitory concentration (MIC)
How it was run: as §1

E. faecium VanA(Van^R) = test: In vitro MIC, agar dilution; assay type: cell-based; details: Enterococcus faecium, read-out: minimum inhibitory concentration (MIC)
How it was run: as §1

P. aeruginosa ATCC 27853 = test: In vitro MIC, agar dilution; assay type: cell-based; details: Pseudomonas aeruginosa, ATCC27853, read-out: minimum inhibitory concentration (MIC)
How it was run: as §1

[1] = tested on: S. aureus 76(Meth^R)(lac^+); test: In vitro MIC, agar dilution; assay type: cell-based; details: Staphylococcus aureus, read-out: minimum inhibitory concentration (MIC)
How it was run: as §1

[2] = tested on: S. aureus ATCC 13709(Meth^S); test: In vitro MIC, agar dilution; assay type: cell-based; details: Staphylococcus aureus, ATCC13709, S. aureus ATCC 13709(Meth^S); read-out: minimum inhibitory concentration (MIC)
How it was run: as §1

S. aureus ATCC 29213 = test: In vitro MIC, agar dilution; assay type: cell-based; details: Staphylococcus aureus, ATCC29213, read-out: minimum inhibitory concentration (MIC)
How it was run: as §1

[3] = tested on: S. aureus ATCC 33593(Meth^R); test: In vitro MIC, agar dilution; assay type: cell-based; details: Staphylococcus aureus, ATCC33593, read-out: minimum inhibitory concentration (MIC)
How it was run: as §1

[4] = tested on: S. aureus PC1(Meth^S)(lac^+); test: In vitro MIC, agar dilution; assay type: cell-based; details: Staphylococcus aureus, read-out: minimum inhibitory concentration (MIC)
How it was run: as §1

[5] = tested on: S. aureus Spain #356(Meth^R); test: In vitro MIC, agar dilution; assay type: cell-based; details: Staphylococcus aureus, read-out: minimum inhibitory concentration (MIC)
How it was run: as §1

[6] = tested on: S. haemolyticus 05(Meth^R); test: In vitro MIC, agar dilution; assay type: cell-based; details: Staphylococcus haemolyticus, read-out: minimum inhibitory concentration (MIC)
How it was run: as §1

[7] = tested on: S. aureus Col(Meth^R)(lac^-); test: In vitro MIC, agar dilution; assay type: cell-based; details: Staphylococcus aureus, read-out: minimum inhibitory concentration (MIC)
How it was run: (§2)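 Two-fold dilutions (128 to ≤0.25 μg/mL, in duplicate) were poured into Mueller-Hinton agar. Log-phase broth cultures were spot-inoculated at about 10^4 cfu per spot and incubated 35-36°C for 16-20 hours; the MIC was the lowest concentration inhibiting growth. Col is a high-level PBP2a producer; Col 8A is its isogenic PBP2a-lacking partner.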

[8] = tested on: S. aureus Col8A(Meth^S)(lac^-); test: In vitro MIC, agar dilution; assay type: cell-based; details: Staphylococcus aureus; S. aureus Col8A(Meth^S)(lac^-); read-out: minimum inhibitory concentration (MIC)
How it was run: as §2

[9] = tested on: S. aureus strain ATCC 13709 (methicillin-susceptible); test: Murine model for lethal bacteremic peritonitis; assay type: in vivo, female Swiss-Webster mice; details: Staphylococcus aureus, ATCC13709, SC, 72 h; for responders at 0.3125 mg/kg / responders at 0.625 mg/kg / responders at 2.5 mg/kg / responders at 5 mg/kg: read-out: Survivors; for responders at 1.25 mg/kg: read-out: Survivors (converted); for ED50: two equal doses, IP challenge, read-out: ED50
How it was run: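 Female Swiss-Webster mice were challenged IP with an LD100 inoculum in 7% hog gastric mucin, then given test drug subcutaneously in twofold increments (0.01–512 mg/kg) as two equal doses at challenge and 2 h later, 10 mice per group. Survival was scored at 72 h; PD50 (total mg/kg) was derived by probit.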

**Q.** Which results are given for `NCCSc1cnccc1SC1=C(C(=O)O)N2C(=O)[C@@H](NC(=O)/C(=N\O)c3nc(N)sc3Cl)[C@H]2SC1` [Cmpd 30, (7R)-7-[(Z)-2-(2-amino-5-chlorothiazol-4-yl)-2-(hydroxyimino)acetamido]-3-(3-aminoethylthiopyrid-4-ylthio)-3-cephem-4-carboxylate, trifluoroacetic acid salt]?
**A.** MIC (E. coli ATCC 25992): 8 µg/mL; MIC (E. faecalis ATCC 29212): ≤ 0.06 µg/mL; MIC (E. faecalis VanB(Van^R)): ≤ 0.06 µg/mL; MIC (E. faecium A491(Amp^R)): 8 µg/mL; MIC (E. faecium ATCC 35667): 0.5 µg/mL; MIC (E. faecium VanA(Van^R)): 1 µg/mL; MIC (P. aeruginosa ATCC 27853): > 32 µg/mL; MIC [1]: 2 µg/mL; MIC [2]: ≤ 0.25 µg/mL; MIC (S. aureus ATCC 29213): 0.25 µg/mL; MIC [3]: 1 µg/mL; MIC [4]: ≤ 0.25 µg/mL; MIC [5]: 1 µg/mL; MIC [6]: 1 µg/mL; MIC [7]: 0.5 µg/mL; MIC [8]: 0.13 µg/mL; responders at 0.3125 mg/kg [9]: 0%; responders at 0.625 mg/kg [9]: 20%; responders at 1.25 mg/kg [9]: 40%; responders at 2.5 mg/kg [9]: 100%; responders at 5 mg/kg [9]: 100%; ED50 [9]: 1.14 mg/kg

**Q.** With `NCC(O)CSCc1cnccc1SC1=C(C(=O)O)N2C(=O)[C@@H](NC(=O)/C(=N\O)c3nc(N)sc3Cl)[C@H]2SC1` (stereo partly drawn) [Cmpd 32, (7R)-7-[(Z)-2-(2-amino-5-chlorothiazol-4-yl)-2-(hydroxyimino)acetamido]-3-[3-(3-amino-2-hydroxyprop-1-ylthiomethyl)pyrid-4-ylthio]-3-cephem-4-carboxylate, trifluoroacetic acid salt] as the molecule, how does the MIC (E. coli ATCC 25992) read?
**A.** Its MIC is 8 µg/mL.

**Q.** What about the MIC (E. faecalis ATCC 29212) of the same molecule?
**A.** Its MIC is at most 0.06 µg/mL.

**Q.** What about the MIC (E. faecalis VanB(Van^R)) of the same molecule?
**A.** Its MIC is 0.13 µg/mL.

**Q.** And the MIC (E. faecium A491(Amp^R))?
**A.** Its MIC is 8 µg/mL.

**Q.** And the MIC (E. faecium ATCC 35667)?
**A.** The MIC was 0.5 µg/mL.

**Q.** And the MIC (E. faecium VanA(Van^R))?
**A.** Its MIC is 1 µg/mL.

**Q.** And the MIC (P. aeruginosa ATCC 27853)?
**A.** The MIC was over 32 µg/mL.

**Q.** And the MIC [1]?
**A.** The MIC was 2 µg/mL.

**Q.** And the MIC [2]?
**A.** Its MIC is 0.13 µg/mL.

**Q.** What about the MIC (S. aureus ATCC 29213) of the same molecule?
**A.** Its MIC is 0.25 µg/mL.

**Q.** What about the MIC [3] of the same molecule?
**A.** Its MIC is 2 µg/mL.

**Q.** And the MIC [4]?
**A.** The MIC was 0.5 µg/mL.

**Q.** And the MIC [5]?
**A.** Its MIC is 2 µg/mL.

**Q.** What about the MIC [6] of the same molecule?
**A.** The MIC was 4 µg/mL.

**Q.** What about the MIC [7] of the same molecule?
**A.** The MIC was 1 µg/mL.

**Q.** And the MIC [8]?
**A.** The MIC was 0.25 µg/mL.

**Q.** What about the responders at 0.3125 mg/kg [9] of the same molecule?
**A.** The responders at 0.3125 mg/kg was 0%.

**Q.** And the responders at 0.625 mg/kg [9]?
**A.** The responders at 0.625 mg/kg was 10%.

**Q.** And the responders at 1.25 mg/kg [9]?
**A.** Its responders at 1.25 mg/kg is 50%.

**Q.** What about the responders at 2.5 mg/kg [9] of the same molecule?
**A.** The responders at 2.5 mg/kg was 50%.

**Q.** And the responders at 5 mg/kg [9]?
**A.** Its responders at 5 mg/kg is 80%.

**Q.** And the ED50 [9]?
**A.** The ED50 was 2 mg/kg.

**Q.** Which MIC (E. coli ATCC 25992) does the source give for `CN(C)C(=O)[C@@H](N)CSCc1cnccc1SC1=C(C(=O)O)N2C(=O)[C@@H](NC(=O)/C(=N\O)c3nc(N)sc3Cl)[C@H]2SC1` [Cmpd 58, (7R)-7-[(Z)-2-(2-amino-5-chlorothiazol-4-yl)-2-(hydroxyimino)acetamido]-3-(3-(2R-2-N,N-dimethylcarboxamido-2-aminoethylthiomethyl)pyrid-4-ylthio)-3-cephem-4-carboxylate, trifluoroacetic acid salt] here?
**A.** Its MIC is 8 µg/mL.

**Q.** And the MIC (E. faecalis ATCC 29212)?
**A.** Its MIC is 0.5 µg/mL.

**Q.** What about the MIC (E. faecalis VanB(Van^R)) of the same molecule?
**A.** Its MIC is 0.5 µg/mL.

**Q.** What about the MIC (E. faecium A491(Amp^R)) of the same molecule?
**A.** The MIC was 16 µg/mL.

**Q.** What about the MIC (E. faecium ATCC 35667) of the same molecule?
**A.** Its MIC is 1 µg/mL.

**Q.** And the MIC (E. faecium VanA(Van^R))?
**A.** The MIC was 2 µg/mL.

**Q.** And the MIC (P. aeruginosa ATCC 27853)?
**A.** The MIC was over 32 µg/mL.

**Q.** What about the MIC [1] of the same molecule?
**A.** The MIC was 4 µg/mL.

**Q.** And the MIC [2]?
**A.** The MIC was 0.5 µg/mL.

**Q.** What about the MIC (S. aureus ATCC 29213) of the same molecule?
**A.** Its MIC is 0.5 µg/mL.

**Q.** And the MIC [3]?
**A.** Its MIC is 2 µg/mL.

**Q.** And the MIC [4]?
**A.** Its MIC is 1 µg/mL.

**Q.** What about the MIC [5] of the same molecule?
**A.** Its MIC is 4 µg/mL.

**Q.** What about the MIC [6] of the same molecule?
**A.** Its MIC is 4 µg/mL.

**Q.** And the MIC [7]?
**A.** Its MIC is 4 µg/mL.

**Q.** What about the MIC [8] of the same molecule?
**A.** The MIC was 0.5 µg/mL.

**Q.** And the responders at 0.3125 mg/kg [9]?
**A.** Its responders at 0.3125 mg/kg is 10%.

**Q.** What about the responders at 0.625 mg/kg [9] of the same molecule?
**A.** The responders at 0.625 mg/kg was 10%.

**Q.** And the responders at 1.25 mg/kg [9]?
**A.** Its responders at 1.25 mg/kg is 20%.

**Q.** And the responders at 2.5 mg/kg [9]?
**A.** The responders at 2.5 mg/kg was 50%.

**Q.** What about the responders at 5 mg/kg [9] of the same molecule?
**A.** Its responders at 5 mg/kg is 50%.

**Q.** And the ED50 [9]?
**A.** Its ED50 is 4.1 mg/kg.
